IC50 data for 28 molecules are collected here from patent publication US9321756B2, “Azole compounds as PIM inhibitors” (priority 2011, dated 2016).

Assay type in all cases: biochemical
The target of assay [1] is full length recombinant Pim-2 (Homo sapiens (Human), UniProt Q9P1W9). Put plainly: Pim enzyme assay (HTRF, phosphorylation of biotinylated-BAD (S112) peptide), Pim-2. Conditions: Pim-2 enzyme assay; read-out: Pim2_IC50. On the technique in general: In TR-FRET formats the signal depends on donor and acceptor labels being close together.
The target in assay [2] is full length recombinant Pim-1 (Homo sapiens (Human), UniProt P11309). Description: Pim enzyme assay (HTRF, phosphorylation of biotinylated-BAD (S112) peptide), Pim-1. Conditions: Pim-1 enzyme assay; read-out: Pim_1_IC50.
The target in assay [3] is full length recombinant Pim-3 (Homo sapiens (Human), UniProt Q86V86). Put plainly: Pim enzyme assay (HTRF, phosphorylation of biotinylated-BAD (S112) peptide), Pim-3. Conditions: Pim-3 enzyme assay; read-out: Pim3 IC50. The text has this: Pim-3 was purchased from Millipore (UK).
The phosphorylation of biotinylated-BAD (S112) peptide by full length recombinant Pim-1, Pim-2, or Pim-3 protein was detected with streptavidin:Allophycocyanin (APC) conjugate and a europium (Eu) labeled antibody directed against phosphorylated-BAD (S112). […] The fluorescence is directly proportional to the amount of phosphorylated BAD peptide present in the reaction.
A reference compound was included on each assay plate in order to validate that plate; on one plate of every assay run, two additional reference compounds were included.
The final buffer conditions were as follows: 60 mM Hepes, pH 7.0, 0.05% BSA, 2 mM DTT. Incubations were carried out at RT (22° C.) for 2 h for Pim-1, 1 h and 30 min for Pim-3, and 45 min for Pim-2. The reaction was then stopped by the addition of 3 mM EDTA, and fluorescence was measured by an HTRF® Rubystar microplate reader. For each plate, percent of control (POC) values were calculated for each well. Values for the IC50 IP were estimated using a standard 4-parameter logistic model.

full length recombinant Pim-2, sequence (Q9P1W9 whole entry): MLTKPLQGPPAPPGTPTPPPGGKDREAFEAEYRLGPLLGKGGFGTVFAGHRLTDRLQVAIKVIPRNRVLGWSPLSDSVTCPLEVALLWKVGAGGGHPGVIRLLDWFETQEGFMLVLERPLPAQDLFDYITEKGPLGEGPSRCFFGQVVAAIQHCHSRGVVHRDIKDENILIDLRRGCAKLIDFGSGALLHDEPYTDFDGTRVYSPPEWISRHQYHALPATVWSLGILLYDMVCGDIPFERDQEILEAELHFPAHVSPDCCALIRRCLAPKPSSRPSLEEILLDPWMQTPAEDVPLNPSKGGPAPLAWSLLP
full length recombinant Pim-1, sequence (P11309 whole entry): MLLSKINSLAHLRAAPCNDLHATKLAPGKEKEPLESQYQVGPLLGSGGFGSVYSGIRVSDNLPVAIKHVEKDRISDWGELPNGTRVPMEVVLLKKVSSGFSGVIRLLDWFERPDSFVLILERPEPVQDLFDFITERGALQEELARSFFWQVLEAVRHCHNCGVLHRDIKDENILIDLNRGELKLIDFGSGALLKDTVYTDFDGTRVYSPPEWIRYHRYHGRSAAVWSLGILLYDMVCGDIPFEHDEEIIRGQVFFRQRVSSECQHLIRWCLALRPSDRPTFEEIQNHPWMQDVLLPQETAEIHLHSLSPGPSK

Turning to `Nc1nnc(-c2ccc3[nH]cc(-c4cc(C(=O)Nc5ccccc5)ccc4F)c3c2)s1` [Example 137, 3-(5-(5-amino-1,3,4-thiadiazol-2-yl)-1H-indol-3-yl)-4-fluoro-N-phenylbenzamide], the IC50 in assay [1] was 237 nM; in assay [2] it was 176 nM; in assay [3], 90.3 nM.

Take `COCC(=O)Nc1cccc(CNc2nnc(-c3ccc4[nH]cc(-c5ccccc5F)c4c3)s2)c1` [Example 146, N-(3-(((5-(3-(2-fluorophenyl)-1H-indol-5-yl)-1,3,4-thiadiazol-2-yl)amino)methyl)phenyl)-2-methoxyacetamide]: the IC50 in assay [1] was 2510 nM; in assay [2], 365 nM; in assay [3], 540 nM.

As to `CC(Nc1nnc(-c2ccc3[nH]cc(-c4ccccn4)c3c2)o1)c1ccccc1` (stereo not drawn) [Example 267, N-(1-phenylethyl)-5-(3-(2-pyridinyl)-1H-indol-5-yl)-1,3,4-oxadiazol-2-amine], the IC50 in assay [1] stood at 231 nM; in assay [2], 97.2 nM; in assay [3], 56.1 nM.

Turning to `Nc1nnc(-c2ccc3[nH]cc(-c4cccc(NC5CCCCC5)n4)c3c2)s1` [Example 205, 6-(5-(5-amino-1,3,4-thiadiazol-2-yl)-1H-indol-3-yl)-N-cyclohexyl-2-pyridinamine], the IC50 worked out at 227 nM in assay [1], 110 nM in assay [2] and 21.6 nM in assay [3].

Take `COc1ccc(CNc2nnc(-c3ccc4[nH]cc(-c5cncc(C6CC6)n5)c4c3)o2)cc1` [Example 36, 5-(3-(6-Cyclopropylpyrazin-2-yl)-1H-indol-5-yl)-N-(4-methoxybenzyl)-1,3,4-oxadiazol-2-amine 2,2,2-trifluoroacetate]: the figures for the IC50 in assay [1], in assay [2] and in assay [3] were 212 nM, 43 nM and 11.4 nM, respectively.

Take `CC(C)Oc1cc(F)cc(-c2c[nH]c3ccc(-c4nnc(N)o4)cc23)c1` [Example 79, 5-(3-(3-fluoro-5-(1-methylethoxy)phenyl)-1H-indol-5-yl)-1,3,4-oxadiazol-2-amine]: the IC50 in assay [1] came out at 185 nM; in assay [2] it was 154 nM; in assay [3], 85.8 nM.

Consider `Nc1nnc(-c2ccc3[nH]cc(-c4cccc(O)n4)c3c2)s1` [Example 196, 6-(5-(5-amino-1,3,4-thiadiazol-2-yl)-1H-indol-3-yl)-2-pyridinol], for which the results for the IC50 in assay [1], in assay [2] and in assay [3] were above 3000 nM, 2070 nM and 918 nM, respectively.

For the molecule `Nc1nnc(-c2ccc3[nH]cc(-c4cccc(-n5ccccc5=O)n4)c3c2)s1` [Example 185, 6′-(5-(5-amino-1,3,4-thiadiazol-2-yl)-1H-indol-3-yl)-2H-1,2′-bipyridin-2-one], the IC50 in assay [1] turned out to be 244 nM; in assay [2], 224 nM; in assay [3] it was 68.2 nM.

Take `Cc1ccccc1-c1ccnc(-c2c[nH]c3ccc(-c4nnc(N)o4)cc23)n1` [Example 124, 5-(3-(4-(2-methylphenyl)-2-pyrimidinyl)-1H-indol-5-yl)-1,3,4-oxadiazol-2-amine]: the IC50 was 33.4 nM in assay [1], 27.9 nM in assay [2] and 17.2 nM in assay [3].

On to `CNc1nnc(-c2ccc3[nH]cc(-c4csc(-c5ccoc5)n4)c3c2)s1` [Example 240, 5-(3-(2-(3-furanyl)-1,3-thiazol-4-yl)-1H-indol-5-yl)-N-methyl-1,3,4-thiadiazol-2-amine], for which the IC50 in assay [1] was determined as 2640 nM; in assay [2], 1520 nM; in assay [3], 409 nM.

Turning to `Nc1nnc(-c2ccc3[nH]cc(-c4cnc(OC5CCCC5)cn4)c3c2)s1` [Example 195, 5-(3-(5-(cyclopentyloxy)-2-pyrazinyl)-1H-indol-5-yl)-1,3,4-thiadiazol-2-amine], the IC50 in assay [1] was 1340 nM; in assay [2], 956 nM; in assay [3], 506 nM.

With `Nc1cc(-c2c[nH]c3ccc(-c4nnc(N)s4)cc23)ccn1` [Example 186, 4-(5-(5-amino-1,3,4-thiadiazol-2-yl)-1H-indol-3-yl)-2-pyridinamine], the IC50 came out at 270 nM in assay [1], 260 nM in assay [2] and 83.8 nM in assay [3].

With `C[C@H]1CCCCN1c1nc(-c2c[nH]c3ccc(-c4nnc(N)s4)cc23)cs1` (stereo in doubt) [Example 184, 5-(3-(2-(2-methyl-1-piperidinyl)-1,3-thiazol-4-yl)-1H-indol-5-yl)-1,3,4-thiadiazol-2-amine], the IC50 in assay [1] was found to be 602 nM; in assay [2], 161 nM; in assay [3] it was 94.7 nM.

On to `CC(C)(Nc1nnc(-c2ccc3[nH]cc(-c4ncccn4)c3c2)o1)c1ccccc1` [Example 52, N-(2-phenylpropan-2-yl)-5-(3-(pyrimidin-2-yl)-1H-indol-5-yl)-1,3,4-oxadiazol-2-amine 2,2,2-trifluoroacetate], for which the IC50 in assay [1] came out at 271 nM; in assay [2] it was 70.1 nM; in assay [3], 40.3 nM.

Turning to `CNc1nnc(-c2ccc3[nH]cc(-c4cccc(N)c4)c3c2)s1` [Example 221, 5-(3-(3-aminophenyl)-1H-indol-5-yl)-N-methyl-1,3,4-thiadiazol-2-amine], the IC50 was determined as 1490 nM in assay [1], 744 nM in assay [2] and 158 nM in assay [3].

Take `CNc1nnc(-c2ccc3[nH]cc(-c4c(F)cccc4F)c3c2)s1` [Example 237, 5-(3-(2,6-difluorophenyl)-1H-indol-5-yl)-N-methyl-1,3,4-thiadiazol-2-amine]: the values for the IC50 in assay [1], in assay [2] and in assay [3] were 1220 nM, 538 nM and 227 nM, respectively.

As for `Nc1nnc(-c2ccc3[nH]cc(-c4cnn(CCN5CCOCC5)c4)c3c2)o1` [Example 81, 5-(3-(1-(2-(4-morpholinyl)ethyl)-1H-pyrazol-4-yl)-1H-indol-5-yl)-1,3,4-oxadiazol-2-amine], the figures for the IC50 in assay [1], in assay [2] and in assay [3] were 273 nM, 101 nM and 147 nM, respectively.

Turning to `CNc1nnc(-c2ccc3[nH]cc(-c4cccc(-n5ccccc5=O)n4)c3c2)s1` [Example 238, 6′-(5-(5-(methylamino)-1,3,4-thiadiazol-2-yl)-1H-indol-3-yl)-2H-1,2′-bipyridin-2-one], the IC50 in assay [1] was 856 nM; in assay [2], 712 nM; in assay [3], 197 nM.

With `Nc1nnc(-c2ccc3[nH]cc(-c4cncc(Oc5ccccc5)n4)c3c2)o1` [Example 92, 5-(3-(6-phenoxy-2-pyrazinyl)-1H-indol-5-yl)-1,3,4-oxadiazol-2-amine], the IC50 in assay [1] is 46.6 nM; in assay [2], 25.9 nM; in assay [3], 12.3 nM.

For `Nc1nnc(-c2ccc3[nH]cc(-c4cnc5ccccc5c4)c3c2)s1` [Example 21, 5-(3-(quinolin-3-yl)-1H-indol-5-yl)-1,3,4-thiadiazol-2-amine], the IC50 in assay [1] was 1010 nM; in assay [2], 178 nM; in assay [3], 179 nM.

For the molecule `CNc1nnc(-c2ccc3[nH]cc(-c4cccc(-c5ccccc5)c4)c3c2)s1` [Example 22, 5-(3-(biphenyl-3-yl)-1H-indol-5-yl)-N-methyl-1,3,4-thiadiazol-2-amine], the IC50 was above 3000 nM in assay [1], 2800 nM in assay [2] and 1470 nM in assay [3].

With `CCOc1cnc(-c2c[nH]c3ccc(-c4nnc(N)o4)cc23)cn1` [Example 86, 5-(3-(5-ethoxy-2-pyrazinyl)-1H-indol-5-yl)-1,3,4-oxadiazol-2-amine], the IC50 in assay [1] was found to be 324 nM; in assay [2], 279 nM; in assay [3], 122 nM.

As to `Nc1nnc(-c2ccc3[nH]cc(-c4c(F)cccc4F)c3c2)s1` [Example 138, 5-(3-(2,6-difluorophenyl)-1H-indol-5-yl)-1,3,4-thiadiazol-2-amine], the figures for the IC50 in assay [1], in assay [2] and in assay [3] were 348 nM, 199 nM and 96.7 nM, respectively.

Turning to `CNc1nnc(-c2ccc3[nH]cc(-c4ccncc4)c3c2)s1` [Example 219, N-methyl-5-(3-(4-pyridinyl)-1H-indol-5-yl)-1,3,4-thiadiazol-2-amine], the IC50 in assay [1] worked out at 686 nM; in assay [2], 551 nM; in assay [3], 204 nM.

For the molecule `Fc1ccccc1-c1c[nH]c2ccc(-c3nnc(NCc4ccccc4)s3)cc12` [Example 149, N-benzyl-5-(3-(2-fluorophenyl)-1H-indol-5-yl)-1,3,4-thiadiazol-2-amine], the IC50 was above 3000 nM in assay [1], 1050 nM in assay [2] and 522 nM in assay [3].

Take `Fc1ccccc1-c1c[nH]c2ccc(-c3nnc(NCc4ccc5[nH]ccc5c4)s3)cc12` [Example 142, 5-(3-(2-fluorophenyl)-1H-indol-5-yl)-N-(1H-indol-5-ylmethyl)-1,3,4-thiadiazol-2-amine]: the IC50 in assay [1] stood at 1480 nM; in assay [2], 109 nM; in assay [3] it was 59.5 nM.

For the molecule `CNc1nnc(-c2ccc3[nH]cc(-c4ccn[nH]4)c3c2)s1` [Example 222, N-methyl-5-(3-(1H-pyrazol-5-yl)-1H-indol-5-yl)-1,3,4-thiadiazol-2-amine], the IC50 in assay [1] came to 1440 nM; in assay [2], 1010 nM; in assay [3], 268 nM.

For the molecule `CNc1nnc(-c2ccc3[nH]cc(-c4ccc(-c5cccs5)s4)c3c2)s1` [Example 241, 5-(3-(2,2′-bithiophen-5-yl)-1H-indol-5-yl)-N-methyl-1,3,4-thiadiazol-2-amine], the IC50 was above 10000 nM in assay [1], 2180 nM in assay [2] and 414 nM in assay [3].
